The record followed here is EP0393604B1, “6,11-Dihydro-5H-pyrido(2,3-b)(1,5,)benzodiazepin-5-ones and thiones and their use in the prevention or treatment of AIDS” (priority 1989, dated 1990).

The experiment concerns the target T1, HIV-1 RT (Human immunodeficiency virus type 1 group M subtype B, UniProt P03367).
T1 construct: Reverse transcriptase enzyme from the LAV strain of Human Immunodeficiency Virus (HIV-1) (1) was isolated from the bacterial strain JM109; made in house; host or cells: E. coli JM109, clone pBRTprt1+ in vector pIBI21, lac promoter, IPTG induction
The experiment is described as follows: Reverse Transcriptase (RT) Assay: inhibition of RNA-dependent DNA polymerase activity. The experiment is classed as biochemical. The following applies: for inhibition at 10 µg/mL: read-out: RT Inhibition % @ 10µg/ml. An excerpt: Utilizing the Reverse Transcriptase (RT) Assay descibed below, compounds can be tested for their ability to inhibit the RNA-dependent DNA polymerase activity of HIV-1 RT. Certain specific compounds of formula I described in the Examples which appear below, were so tested. The above-described compounds of formula IA were also so tested.
Among the enzymes for which Human Immunodeficiency Virus (HIV-1) encodes is a reverse transcriptase (1), so-named because it transcribes a DNA copy from an RNA template. This activity can be quantitatively measured in a cell-free enzyme assay which has been previously described (2), and is based upon the observation that reverse transcriptase is able to use a synthetic template [poly r(C) primed with oligo d(G)] to transcribe a radio-labelled, acid-precipitable DNA strand utilizing ^3H-dGTP as a substrate.
Reverse transcriptase enzyme from the LAV strain of Human Immunodeficiency Virus (HIV-1) (1) was isolated from the bacterial strain JM109 (3) expressing the DNA clone pBRTprt1+ (2) which is under the control of the lac promoter in the expression vector pIBI21 (4). An overnight culture grown in 2XYT medium (37°C, 225 rpm) (5) supplemented with 100 µg/ml ampicillin for positive selection is inoculated at a 1:40 dilution into M9 medium supplemented with 10µg/ml thiamine, 0.5% casamino acids, and 50 µg/ml ampicillin (5). The culture is incubated (37°C, 225 rpm) until it reaches an OD540 of 0.3-0.4. At that time the repressor inhibitor IPTG (isopropyl b-D-thiogalactopyranoside) is added to 0.5mM and the mixture is incubated for 2 additional hours. Bacteria are pelleted, resuspended in a 50mM Tris, 0.6mM EDTA, 0.375M NaCl buffer and digested by the addition of lysozyme (1mg/ml) for 30 minutes on ice. The cells are lysed by the addition of 0.2% NP-40 and brought to 1M NaCl.
After removal of the insoluble debris by centrifugation, the protein is precipitated by the addition of 3 volumes of water-saturated ammonium sulfate. The enzyme is pelleted, resuspended in RT buffer (50mM Tris pH 7.5. 1mM EDTA, 5mM DTT, 0.1% NP-40, 0.1M NaCl, and 50% glycerol), and stored at -70°C for further use.
The 2X concentrated stock reaction mixture is aliquoted and stored at -20°C. The mixture is stable and thawed for use in each assay. This enzyme assay has been adapted to a 96 well microtiter plate system, and has been previously described (6). Tris buffer (50 mM, pH 7.4), vehicle (solvent diluted to match the compound dilution), or compounds in vehicle are dispensed into 96-well microtiter plates (10µl/well: 3 wells/compound). The HIV-1 RT enzyme is thawed and diluted in 50mM Tris pH 7.4 so that fifteen µl of diluted enzyme contain 0.001 Unit (one unit is that amount of enzyme to transform 1 micromole of substrate per minute at 25°C) and 15µl are dispensed per well. Twenty µl of 0.12 - 0.5M EDTA are added to the first three wells of the microtiter plate. EDTA chelates the Mg^++ present and prevents reverse transcription. This group serves as background polymerization which is subtracted from all other groups. Twenty-five ul of the 2X reaction mixture are added to all wells and the assay is allowed to incubate at room temperature for 60 minutes. The assay is terminated by precipitating the DNA in each well with 50µl of trichloracetic acid (TCA) (10% w/v) in sodium pyrophosphate (1% w/v). The microtiter plate is incubated for 15 minutes at 4°C and the precipitate is fixed onto #30 glass fiber paper (Schleicher & Schuell) using a Skatron semi-automatic harvester. The filters are then washed with additional TCA (5%) containing sodium pyrophosphate (1%), rinsed with aqueous ethanol (70%), dried, and transferred to scintillation vials (6). Each vial receives 2 mls of scintillation cocktail and is counted in a Beckman beta counter. […]

Where [1] appears, read: 10µg/ml, Table I, compounds of formula I.
[2] abbreviates: 10µg/ml, Table II, known compounds of formula IA.

SMILES strings stand for the structures. Like-named read-outs stand apart in the source and are kept apart here.

Consider `CN1c2ccccc2NC(=O)c2cccnc21` [Example 1, 6,11-Dihydro-11-methyl-5H-pyrido[2,3-b][1,5]benzodiazepin-5-one], for which the inhibition at 10 µg/mL under setting [1] was found to be 37%.

As to `CCCN1c2ccccc2N(C)C(=O)c2cccnc21` [Example 3, 6,11-Dihydro-6-methyl-11-propyl-5H-pyrido[2,3-b][1,5]benzodiazepin-5-one], under setting [1], the inhibition at 10 µg/mL was 92%.

In the case of `CCCCN1c2ccccc2N(C)C(=O)c2cccnc21` [Example 6, 11-Butyl-6,11-dihydro-6-methyl-5H-pyrido[2,3-b][1,5]-benzodiazepin-5-one], the inhibition at 10 µg/mL under setting [1] was 46%.

With `CN1C(=O)c2cccnc2N(CCO)c2ccccc21` [Example 7, 6,11-Dihydro-11-(2-hydroxyethyl)-6-methyl-5H-pyrido[2,3-b][1,5]benzodiazepin-5-one], the inhibition at 10 µg/mL under setting [1] amounted to 50%.

As to `CN1C(=O)c2cccnc2N(C)c2ccccc21` [Example 10, 6,11-Dihydro-6,11-dimethyl-5H-pyrido[2,3-b][1,5]benzodiazepin-5-one], the inhibition at 10 µg/mL under setting [1] was found to be 68%.

On to `CCN1C(=O)c2cccnc2N(C)c2ccccc21` [Example 11, 6,11-Dihydro-6-ethyl-11-methyl-5H-pyrido[2,3-b][1,5]benzodiazepin-5-one], for which the inhibition at 10 µg/mL under setting [1] stood at 88%.

For `CCCN1C(=O)c2cccnc2N(C)c2ccccc21` [Example 12, 6,11-Dihydro-11-methyl-6-propyl-5H-pyrido[2,3-b][1,5]benzodiazepin-5-one], the inhibition at 10 µg/mL under setting [1] was 89%.

As to `CC(C)N1C(=O)c2cccnc2N(C)c2ccccc21` [Example 13, 6,11-Dihydro-11-methyl-6-methylethyl-5H-pyrido[2,3-b][1,5]benzodiazepin-5-one], the inhibition at 10 µg/mL under setting [1] came to 91%.

Consider `CCCCN1C(=O)c2cccnc2N(C)c2ccccc21` [Example 14, 6-Butyl-6,11-dihydro-11-methyl-5H-pyrido[2,3-b][1,5] benzodiazepin-5-one], for which the inhibition at 10 µg/mL under setting [1] amounted to 75%.

For the compound `Cc1cc(C)c2c(n1)N(C)c1cc(C)c(C)cc1N(C)C2=O` [Example 16, 6,11-Dihydro-2,4,6,8,9,11-hexamethyl-5H-pyrido[2,3-b][1,5]benzodiazepin-5-one], under setting [1], the inhibition at 10 µg/mL worked out at 44%.

Turning to `CC(=O)N1c2ccccc2N(C)C(=O)c2cccnc21` [Example 18, 11-Acetyl-6,11-dihydro-6-methyl-5H-pyrido[2,3-b][1,5]benzodiazepin-5-one], the inhibition at 10 µg/mL under setting [1] came to 29%.

For `CSCN1C(=O)c2cccnc2N(CSC)c2cc(Cl)ccc21` [Example 20, 6,11-bis-(methylthiomethyl)-9-chloro-6,11-dihydro-5H-pyrido-[2,3-b][1,5]benzodiazepin-5-one], the inhibition at 10 µg/mL under setting [1] was 69%.

In the case of `CCN1C(=O)c2cccnc2N(CC)c2ccccc21` [Example 21, 6,11-Diethyl-6,11-dihydro-5H-pyrido[2,3-b][1,5]benzodiazepin-5-one], the inhibition at 10 µg/mL under setting [1] was determined as 96%.

For `CCN1c2ccccc2NC(=O)c2cccnc21` [Example 23, 6,11-Dihydro-11-ethyl-5H-pyrido[2,3-b][1,5]benzodiazepin-5-one], under setting [1], the inhibition at 10 µg/mL worked out at 100%.

Take `CCN1c2ccccc2NC(=S)c2cccnc21` [Example 24, 6,11-Dihydro-11-ethyl-5H-pyrido[2,3-b][1,5]benzodiazepin-5-thione]: the inhibition at 10 µg/mL came to 100%.

On to `CN1C(=O)c2cccnc2N(Cc2ccccc2)c2ccccc21` [Example 25, 6,11-Dihydro-11-benzyl-6-methyl-5H-pyrido[2,3-b][1,5]benzodiazepin-5-one], for which the inhibition at 10 µg/mL under setting [1] worked out at 73%.

On to `CN1C(=O)c2cccnc2N(CC(=O)OC(C)(C)C)c2ccccc21` [Example 26, 6,11-Dihydro-11-(t-butoxycarbonyl)methyl-6-methyl-5H-pyrido[2,3-b][1,5] benzodiazepin-5-one], for which the inhibition at 10 µg/mL under setting [1] is 81%.

For the compound `CCOC(=O)CN1c2ccccc2N(C)C(=O)c2cccnc21` [Example 27, 6,11-Dihydro-11-(ethoxycarbonyl)methyl-6-methyl-5H-pyrido[2,3-b][1,5] benzodiazepin-5-one], the inhibition at 10 µg/mL under setting [1] amounted to 64%.

With `Cc1cc2c(cc1C)N(C)C(=O)c1cccnc1N2` [Example 28, 6,11-Dihydro-6,8,9-trimethyl-5H-pyrido[2,3-b][1,5]benzodiazepin-5-one], the inhibition at 10 µg/mL under setting [1] stood at 65%.

As to `CCN1c2cc(C)c(C)cc2N(C)C(=O)c2cccnc21` [Example 29, 6,11-Dihydro-11-ethyl-6,8,9-trimethyl-5H-pyrido[2,3-b][1,5]benzodiazepin-5-one], under setting [1], the inhibition at 10 µg/mL amounted to 99%.

Consider `CCN1c2ccc(C(=O)OC)cc2N(C)C(=O)c2cccnc21` [Example 30, 6,11-Dihydro-8-methoxycarbonyl-11-ethyl-6-methyl-5H-pyrido[2,3-b][1,5] benzodiazepin-5-one], for which, under setting [1], the inhibition at 10 µg/mL worked out at 94%.

With `CCN1C(=O)c2cccnc2Nc2cccc(C)c21` [Example 31, 6,11-Dihydro-6-ethyl-7-methyl-5H-pyrido[2,3-b][1,5]benzodiazepin-5-one], under setting [1], the inhibition at 10 µg/mL is 92%.

Consider `Cc1cccc2c1NC(=O)c1cccnc1N2` [Example 32, 6,11-Dihydro-7-methyl-5H-pyrido[2,3-b][1,5]benzodiazepin-5-one], for which the inhibition at 10 µg/mL under setting [1] came to 51%.

In the case of `CN1C(=O)c2cccnc2N(CCF)c2ccccc21` [Example 33, 6,11-Dihydro-11-(2-fluoroethyl)-6-methyl-5H-pyrido[2,3-6][1,5]benzodiazepin-5-one], the inhibition at 10 µg/mL amounted to 97%.

For `CCN1c2ccccc2N(CF)C(=O)c2cccnc21` [Example 34, 6,11-Dihydro-11-ethyl-6-fluoromethyl-5H-pyrido-[2,3-b][1,5]benzodiazepin-5-one], the inhibition at 10 µg/mL under setting [1] was found to be 85%.

As to `Cc1ccc2c(c1)N(C)C(=O)c1c(C)cc(C)nc1N2` [Formula IA a, 2,4,6,8-tetramethyl-6,11-dihydro-5H-pyrido[2,3-b][1,5]benzodiazepin-5-one], the inhibition at 10 µg/mL under setting [2] was 58%.

With `CN1C(=O)c2cccnc2Nc2ccccc21` [Formula IA b, 6-methyl-6,11-dihydro-5H-pyrido[2,3-b][1,5]benzodiazepin-5-one], under setting [2], the inhibition at 10 µg/mL was determined as 43%.

In the case of `O=C1Nc2ccccc2Nc2ncccc21` [Formula IA c, 6,11-dihydro-5H-pyrido[2,3-b][1,5]benzodiazepin-5-one], the inhibition at 10 µg/mL under setting [2] came to 22%.

In the case of `CCN1C(=O)c2cccnc2Nc2ccccc21` [Formula IA d, 6-ethy-6,11-dihydro-5H-pyrido[2,3-b][1,5]benzodiazepin-5-one], the inhibition at 10 µg/mL under setting [2] is 69%.

As to `Cc1cc2c(cc1C)N(C)C(=O)c1cccnc1N2` [Formula IA e, 6,8,9-trimethyl-6,11-dihydro-5H-pyrido[2,3-b][1,5]benzodiazepin-5-one], the “RT Inhibition % @ 10µg/ml” value under setting [2] is listed as 65%.

In the case of `CCN1C(=O)c2cccnc2Nc2cc(C)c(C)cc21` [Formula IA f, 6-ethyl-8,9-dimethyl-6,11-dihydro-5H-pyrido[2,3-b][1,5]benzodiazepin-5-one], the inhibition at 10 µg/mL under setting [2] was 95%.

Consider `CC(C)CN1C(=O)c2cccnc2Nc2ccccc21` [Formula IA g, 6-isobutyl-6,11-dihydro-5H-pyrido[2,3-b][1,5]benzodiazepin-5-one], for which the inhibition at 10 µg/mL under setting [2] was determined as 33%.
